Common to all, as to format: physicochemical
Series [1] can be described thus: ΔlogD parameter (logDapp oct/buf − logDapp hex/buf). Conditions: 310.2 K; pH 7.4; cyclodextrin in buffer phase as in the label. The method, then: Apparent distribution coefficients of the compounds were measured in two systems: 1-octanol/buffer pH 7.4 and n-hexane/buffer pH 7.4 by the shake-flask technique at 310.2 ± 0.5 K in the absence (for IPN, INZ and iNAM) and in the presence of cyclodextrins (HP-β-CD and M-β-CD) in the aqueous phase (for IPN only). The concentrations of cyclodextrins were: 0.0115 M, 0.025 M and 0.035 M. The experiments were carried out according to the literature. In brief, the following experimental procedure was performed. Aqueous buffer pH 7.4 and organic solvent (1-octanol or n-hexane) were mixed during 48 h to obtain mutually saturated phases. The stock solutions containing the drug were prepared in buffer pH 7.4 saturated with the organic solvent. Both aliquots of the aqueous stock solution and organic solvent were placed in screwed glass vials and mixed at 310.2 ± 0.5 K during 3 days. The concentrations of the stock solutions were approximately 6.0 × 10^−3 M for both systems. […] The drug concentrations were determined using spectrophotometer (Cary-50 Varian, Palo Alto, CA, USA, Software Version 3.00 (339)). […] The distribution coefficients were calculated using the following equation:(6) DappOrg/buf=C2Org/buf⋅V^buf/Org/C2buf/Org⋅V^Org/buf where DappOrg/buf is the distribution coefficient calculated from the concentrations of the compounds expressed in molar scale, C2Org/buf and C2buf/Org are the molar concentrations of the drug in the mutually saturated organic solvent/buffer and buffer/organic solvent phases, respectively, and V^buf/Org and V^Org/buf are the volumes of the saturated buffer and organic solvent phases, respectively. […] As Abraham et al. stated, the difference between the distribution parameters in these systems ( ΔlogD ) can be applied to assess the specific interactions including a hydrogen-bonding impact to the drug transport properties and can be calculated as follows:(7) ΔlogD=logDappoct/buf−logDapphex/buf

Series [2] in a line: Shake-flask solubility in 1-octanol and dissolution thermodynamics. Conditions: for Molar solubility S2 × 10^1 in 1-Octanol: value = S2 × 10^1. As to the method: The solubility of the investigated drugs in 1-octanol and n-hexane was determined by the shake-flask technique. To this end, the glass vials containing the solutions with the excess amount of the compound were placed in an air thermostat and stirred at a predetermined temperature for no less than 24 h (equilibrium state). After this, the suspensions were left for 5 h or more to precipitate the undissolved drug and centrifuged (Biofuge pico, Thermo Electron LED GmbH, Langenselbold, Germany) at a predetermined temperature during 20 min (10,000 rpm). The aliquots of the clear solutions were taken and examined via a spectrophotometer (Cary-50 Varian, Palo Alto, CA, USA, Software Version 3.00 (339)). The molar concentrations of the compounds in the solvents were calculated using calibration curves at the appropriate wavelength characteristic for each substance. The experimental results were reported as an average of at least three replicated experiments with an accuracy of 2–4%. In order to evaluate the thermodynamic parameters of the IPN dissolution in 1-octanol and n-hexane, the molar solubility ( S2 ) was recalculated to the mole fraction ( X2 ) by the equation:(1) X2=M2S2/S2(M1−M2)+1000ρ, where M1 and M2 are the molar masses of IPN and organic solvent, respectively, and ρ (g∙cm^−3) is the density of the pure solvents. The linear functions describing the temperature dependences of the solubility within the temperature interval from 293.2 ± 0.5 K to 313.2 ± 0.5 K for both organic solvents were derived:(2) lnX2=A+B/T
The apparent solution enthalpies ΔHsol0 were determined by the van’t Hoff equation:(3) ∂(lnX2)/∂T=ΔHsol0/RT^2
The apparent dissolution Gibbs energies ( ΔGsol ) and entropies ( ΔSsol ) were calculated at a standard temperature of 298.2 K and 310.2 K:(4) ΔGsol298.2/310.2=−RT(lnX2298.2/310.2) (5) ΔGsol298.2/310.2=ΔHsol0−TΔSsol298.2/310.2 where R is the universal gas constant.

Series [3] in a line: Shake-flask distribution in the 1-octanol/buffer pH 7.4 system. As to the method: Apparent distribution coefficients of the compounds were measured in two systems: 1-octanol/buffer pH 7.4 and n-hexane/buffer pH 7.4 by the shake-flask technique at 310.2 ± 0.5 K in the absence (for IPN, INZ and iNAM) and in the presence of cyclodextrins (HP-β-CD and M-β-CD) in the aqueous phase (for IPN only). The concentrations of cyclodextrins were: 0.0115 M, 0.025 M and 0.035 M. The experiments were carried out according to the literature. In brief, the following experimental procedure was performed. Aqueous buffer pH 7.4 and organic solvent (1-octanol or n-hexane) were mixed during 48 h to obtain mutually saturated phases. The stock solutions containing the drug were prepared in buffer pH 7.4 saturated with the organic solvent. Both aliquots of the aqueous stock solution and organic solvent were placed in screwed glass vials and mixed at 310.2 ± 0.5 K during 3 days. The concentrations of the stock solutions were approximately 6.0 × 10^−3 M for both systems. The volumes of the phases were 3:3 in the 1-octanol/buffer pH 7.4 systems and 6:3 and 10:3 in the n-hexane/buffer pH 7.4 systems, without and with cyclodextrins, respectively. After mixing, the equilibrium was achieved; the vials were maintained at 310.2 ± 0.5 K, and the phases were separated from each other. The drug concentrations were determined using spectrophotometer (Cary-50 Varian, Palo Alto, CA, USA, Software Version 3.00 (339)). The experiments were carried out at least four-fold with an accuracy of 2–4%. The distribution coefficients were calculated using the following equation:(6) DappOrg/buf=C2Org/buf⋅V^buf/Org/C2buf/Org⋅V^Org/buf where DappOrg/buf is the distribution coefficient calculated from the concentrations of the compounds expressed in molar scale, C2Org/buf and C2buf/Org are the molar concentrations of the drug in the mutually saturated organic solvent/buffer and buffer/organic solvent phases, respectively, and V^buf/Org and V^Org/buf are the volumes of the saturated buffer and organic solvent phases, respectively. In addition, the ΔlogD parameters were estimated taking into account the distribution coefficients both in the 1-octanol/buffer pH 7.4 and n-hexane/buffer H 7.4 systems. As Abraham et al. stated, the difference between the distribution parameters in these systems ( ΔlogD ) can be applied to assess the specific interactions including a hydrogen-bonding impact to the drug transport properties and can be calculated as follows:(7) ΔlogD=logDappoct/buf−logDapphex/buf

The nature of series [4]: Shake-flask solubility in n-hexane and dissolution thermodynamics. The settings on record: T 290.2 K; value = S2 × 10^3.
Where [5] appears, read: 310.2 K, cyclodextrin in buffer phase as in the label.
Where [6] appears, read: V(oct):V(buf)= 3:3, molar concentration × 10^3.

Several values for one entry are separate records, joined by “and”; a condition that tells them apart may be missing. Equal values may be shown once.

Turning to `CC(C)NNC(=O)c1ccncc1` [IPN, N′-isopropyl isonicotinic hydrazide], the ΔlogD in series [1] is reported as 3.33. Moreover, in series [2] (1-octanol, 298.2 K), the TΔSsol298.2 was determined as 3.42 ± 0.096 kcal/mol and the ΔGsol298.2 is 1.48 ± 0.024 kcal/mol. In series [2] (1-octanol, 298.2 K (first value of cell)), this compound displayed a ζHsol of 58.9%. In series [2] (1-octanol, 298.2 K and 310.2 K), the ΔHsol298.2/310.2 came out at 4.9 ± 0.048 kcal/mol. Moreover, in series [2] (1-octanol, 310.2 K), the TΔSsol310.2 was 3.56 ± 0.096 kcal/mol and the ΔGsol310.2 stood at 1.34 ± 0.024 kcal/mol. In series [2] (1-octanol, 310.2 K (second value of cell)), this compound yielded a ζHsol of 57.9%. Further, in series [2] (310.2 K, ratio of molar solubilities), the “solubility higher in 1-octanol than in n-hexane” value worked out at 338 fold. Moreover, the “Molar solubility S2 × 10^1 in 1-Octanol” value in series [2] (T 293.2 K) is on record as 4.44 ± 0.09 × 10^1 (M). In addition, the “Molar solubility S2 × 10^1 in 1-Octanol” value in series [2] (T 298.2 K) is listed as 5.06 ± 0.06 × 10^1 (M). Also, the “Molar solubility S2 × 10^1 in 1-Octanol” value in series [2] (T 303.2 K) was 5.73 ± 0.11 × 10^1 (M). The “Molar solubility S2 × 10^1 in 1-Octanol” value in series [2] (T 310.2 K) is reported as 6.86 ± 0.18 × 10^1 (M). Also, in series [3] (setting [5]), the Dappoct/buff is listed as 2.651 ± 0.093; the logDappoct/buff was 0.423 ± 0.015 and 0.423. Further, in series [3] (setting [6]), the “Molar concentration C2 buf/oct ∙10^3 (aqueous phase)” value is reported as 1.69 ∙10^3 and the “Molar concentration C2 oct/buf ∙10^3 (organic phase)” value is on record as 4.48 ∙10^3. Moreover, the “Molar solubility S2 × 10^3 in n-Hexane” value in series [4] is recorded as 0.72 ± 0.01 × 10^3 (M).

These data come from article PMC10224004, “Modulation of Distribution and Diffusion through the Lipophilic Membrane with Cyclodextrins Exemplified by a Model Pyridinecarboxamide Derivative” (Pharmaceutics, 2023).
